{"source": "patent US5075289A", "about": "“9-R-azacyclic erythromycin antibiotics” (priority 1988, dated 1991)", "key": {"[1]": {"system": "Staphylococcus aureus 45 RAR 2", "test": "microbe, parasite or virus in culture", "type": "cell-based", "conditions": "45RAR2", "experimental": "(§1) The antimicrobial spectra of a number of compounds of the invention were tested by the following method:\n(§2) Twelve petri dishes containing successive aqueous dilutions of the test compound mixed with 10 ml of sterilized Brain Heart Infusion agar (Difco 0418-01-5) are prepared. Each plate is inoculated with 1:100 (or 1:10 for slow growing strains, primarily Micrococcus and Streptococcus) dilutions of up to 32 different microorganisms, using a Steers replicator block The inoculated plates are incubated at 35°-37° C. for 20-24 hours. In addition, a control plate, using BHI agar containing no test compound, is prepared and incubated at the beginning and end of each test.\n(§3) An additional plate containing a compound having known susceptibility patterns for the organisms being tested and belonging to the same antibiotic class as the test compound is also prepared and incubated as a further control, as well as to provide test-to-test comparability. Erythromycin A was used for this purpose.\n(§4) After incubation, each disk is read. The MIC is defined as the lowest concentration of drug yielding no growth, a slight haze, or sparsely isolated colonies on the inoculum spot as compared to the growth control."}, "[2]": {"system": "Streptococcus pyogenes C-203", "test": "In-vivo mouse protection assay (acute mouse protection test)", "design": "species or system Swiss albino mice", "conditions": "S. pyogenes C-203, dosed 1 and 5 hours post infection, 7 days, read-out: ED50", "experimental": "(§5) The acute mouse protection test is conducted on ten mice with each of three levels of drug. Mouse mortality is used to calculate an ED50 value, i.e., the dose of drug required to protect 50% of the test animals against death due to the inoculum challenge.\n(§6) The acute mouse protection test is conducted on female, Swiss albino mice, 18-20 grams in weight. […] To check the potency of the inoculum, a titration of the indicated test organism is carried out in control animals. The treatment group of animals is dosed with the test compound at 1 and 5 hours post infection and observed for 7 days. The ED50 values are calculated using the mortality data collected."}, "[3]": {"system": "Streptococcus pneumoniae (6303)", "test": "In-vivo mouse protection assay (acute mouse protection test)", "design": "species or system Swiss albino mice", "conditions": "168 h", "experimental": "as §5, §6"}, "[4]": {"system": "Staphylococcus aureus (NCTC 10649)", "test": "In-vivo mouse protection assay (acute mouse protection test)", "design": "species or system Swiss albino mice", "conditions": "S. aureus NCTC 10649, dosed 1 and 5 hours post infection, 7 days, read-out: ED50", "experimental": "as §5, §6"}, "[5]": {"system": "Staphylococcus epidermidis 3519", "test": "In vitro antibacterial activity, agar dilution MIC", "type": "cell-based", "conditions": "S. epidermidis 3519, Brain Heart Infusion agar, 20-24 hours, read-out: MIC", "experimental": "as §1, §2, §3, §4"}, "Escherichia coli Juhl": {"system": "Escherichia coli Juhl", "test": "In vitro antibacterial activity, agar dilution MIC", "type": "cell-based", "experimental": "as §1, §2, §3, §4"}, "Staphylococcus aureus 45": {"system": "Staphylococcus aureus 45", "test": "In vitro antibacterial activity, agar dilution MIC", "type": "cell-based", "experimental": "as §1, §2, §3, §4"}, "Escherichia coli DC-2": {"system": "Escherichia coli DC-2", "test": "In vitro antibacterial activity, agar dilution MIC", "type": "cell-based", "conditions": "DC2, E. coli DC-2, Brain Heart Infusion agar, 20-24 hours, read-out: MIC", "experimental": "as §1, §2, §3, §4"}, "[6]": {"system": "Streptococcus pyogenes EES61", "test": "In vitro antibacterial activity, agar dilution MIC", "type": "cell-based", "conditions": "S. pyogenes EES61, Brain Heart Infusion agar, 20-24 hours, read-out: MIC", "experimental": "as §1, §2, §3, §4"}, "[7]": {"system": "Streptococcus pyogenes 2548 INDUC", "test": "In vitro antibacterial activity, agar dilution MIC", "type": "cell-based", "conditions": "S. pyogenes 2548 INDUC, Brain Heart Infusion agar, 20-24 hours, read-out: MIC", "experimental": "as §1, §2, §3, §4"}, "[8]": {"system": "Staphylococcus aureus CMX 553", "test": "In vitro antibacterial activity, agar dilution MIC", "type": "cell-based", "experimental": "as §1, §2, §3, §4"}, "[9]": {"system": "Streptococcus agalactiae CMX 508", "test": "In vitro antibacterial activity, agar dilution MIC", "type": "cell-based", "conditions": "CMX508, S. agalactiae CMX 508, Brain Heart Infusion agar, 20-24 hours, read-out: MIC", "experimental": "as §1, §2, §3, §4"}, "[10]": {"system": "Enterococcus faecium ATCC 8043", "test": "In vitro antibacterial activity, agar dilution MIC", "type": "cell-based", "experimental": "as §1, §2, §3, §4"}, "[11]": {"system": "Staphylococcus aureus CMX 503A", "test": "In vitro antibacterial activity, agar dilution MIC", "type": "cell-based", "conditions": "CMX503A", "experimental": "as §1, §2, §3, §4"}, "[12]": {"system": "Staphylococcus aureus CMX 686B", "test": "In vitro antibacterial activity, agar dilution MIC", "type": "cell-based", "conditions": "CMX686B", "experimental": "as §1, §2, §3, §4"}, "[13]": {"system": "Staphylococcus aureus A5177", "test": "In vitro antibacterial activity, agar dilution MIC", "type": "cell-based", "conditions": "S. aureus A5177, Brain Heart Infusion agar, 20-24 hours, read-out: MIC", "experimental": "as §1, §2, §3, §4"}, "Escherichia coli SS": {"system": "Escherichia coli SS", "test": "In vitro antibacterial activity, agar dilution MIC", "type": "cell-based", "conditions": "read-out: MIC", "experimental": "as §1, §2, §3, §4"}, "[14]": {"system": "Micrococcus luteus ATCC 4698", "test": "In vitro antibacterial activity, agar dilution MIC", "type": "cell-based", "experimental": "as §1, §2, §3, §4"}, "[15]": {"system": "Streptococcus bovis A5169", "test": "In vitro antibacterial activity, agar dilution MIC", "type": "cell-based", "conditions": "read-out: MIC", "experimental": "as §1, §2, §3, §4"}, "[16]": {"system": "Staphylococcus aureus ATCC 6538P", "test": "In vitro antibacterial activity, agar dilution MIC", "type": "cell-based", "conditions": "ATCC6538P, S. aureus ATCC 6538P, Brain Heart Infusion agar, 35-37° C., 20-24 hours, read-out: MIC", "experimental": "as §1, §2, §3, §4"}, "[17]": {"system": "Micrococcus luteus ATCC 9341", "test": "In vitro antibacterial activity, agar dilution MIC", "type": "cell-based", "conditions": "ATCC9341, M. luteus ATCC 9341, Brain Heart Infusion agar, 20-24 hours, read-out: MIC", "experimental": "as §1, §2, §3, §4"}, "[18]": {"system": "Streptococcus pyogenes 930 CONST", "test": "In vitro antibacterial activity, agar dilution MIC", "type": "cell-based", "conditions": "930CONST", "experimental": "as §1, §2, §3, §4"}, "Escherichia coli H560": {"system": "Escherichia coli H560", "test": "In vitro antibacterial activity, agar dilution MIC", "type": "cell-based", "conditions": "E. coli H560, Brain Heart Infusion agar, 20-24 hours, read-out: MIC", "experimental": "as §1, §2, §3, §4"}}, "note": "Where two headings read alike, the source gives them in different places.", "data": [{"compound": "CC[C@H]1OC(=O)[C@H](C)[C@@H](O[C@H]2C[C@@](C)(OC)[C@@H](N)[C@H](C)O2)[C@H](C)[C@@H](O[C@@H]2O[C@H](C)C[C@H](N(C)C)[C@H]2O)[C@](C)(O)C[C@@H](C)[C@@H](N2CCCCC2)[C@H](C)[C@@H](O)[C@]1(C)O", "note": "[Example 31]", "values": [{"measurement": "MIC", "setting": "[1]", "result": 0.78, "unit": "µg/mL"}, {"measurement": "ED50", "setting": "[2]; C203, 168 h, Oral", "result": 27.9, "unit": "mg/kg"}, {"measurement": "ED50", "setting": "[2]; C203, sc, 168 h, Subcutaneous", "result": 0.8, "unit": "mg/kg"}, {"measurement": "ED50", "setting": "[3]; po", "result": 13.8, "unit": "mg/kg"}, {"measurement": "ED50", "setting": "[3]; sc, Subcutaneous, S. pneumoniae 6303, dosed 1 and 5 hours post infection, 7 days, read-out: ED50", "result": 1, "unit": "mg/kg"}, {"measurement": "ED50", "setting": "[4]; NCTC10649, 168 h, Oral", "result": 125, "unit": "mg/kg"}, {"measurement": "ED50", "setting": "[4]; NCTC10649, sc, 168 h, Subcutaneous", "result": 25.7, "unit": "mg/kg"}, {"measurement": "MIC", "setting": "[5]", "result": 0.78, "unit": "µg/mL"}, {"measurement": "MIC", "setting": "Escherichia coli Juhl", "result": 6.2, "unit": "µg/mL"}, {"measurement": "MIC", "setting": "Staphylococcus aureus 45; 45", "result": 0.39, "unit": "µg/mL"}, {"measurement": "MIC", "setting": "Escherichia coli DC-2", "result": 3.1, "unit": "µg/mL"}, {"measurement": "MIC", "setting": "[6]", "result": 0.05, "unit": "µg/mL"}, {"measurement": "MIC", "setting": "[7]", "result": 6.2, "unit": "µg/mL"}, {"measurement": "MIC", "setting": "[8]; CMX553, S. aureus CMX 553, Brain Heart Infusion agar, 20-24 hours, read-out: MIC", "result": 0.39, "unit": "µg/mL"}, {"measurement": "MIC", "setting": "[9]", "result": 0.05, "unit": "µg/mL"}, {"measurement": "MIC", "setting": "[10]; ATCC8043, read-out: MIC", "result": 0.2, "unit": "µg/mL"}, {"measurement": "MIC", "setting": "[11]; S. aureus CMX 503A, Brain Heart Infusion agar, 20-24 hours, read-out: MIC", "result": 0.78, "unit": "µg/mL"}, {"measurement": "MIC", "setting": "[12]; S. aureus CMX 686B, Brain Heart Infusion agar, 20-24 hours, read-out: MIC", "result": 0.39, "unit": "µg/mL"}, {"measurement": "MIC", "setting": "[13]", "result": 6.2, "unit": "µg/mL"}, {"measurement": "MIC", "setting": "Escherichia coli SS", "result": 0.2, "unit": "µg/mL"}, {"measurement": "MIC", "setting": "[14]; ATCC4698", "result": 0.39, "unit": "µg/mL"}, {"measurement": "MIC", "setting": "[15]", "result": 0.02, "unit": "µg/mL"}, {"measurement": "MIC", "setting": "[16]", "result": 0.78, "unit": "µg/mL"}, {"measurement": "MIC", "setting": "[17]", "result": 0.05, "unit": "µg/mL"}, {"measurement": "MIC", "setting": "[18]", "result": "> 100", "unit": "µg/mL"}, {"measurement": "MIC", "setting": "Escherichia coli H560", "result": 1.56, "unit": "µg/mL"}]}, {"compound": "CC[C@H]1OC(=O)[C@H](C)[C@@H](O[C@H]2C[C@@](C)(OC)[C@@H](O)[C@H](C)O2)[C@H](C)[C@@H](O[C@@H]2O[C@H](C)C[C@H](N(C)C)[C@H]2O)[C@](C)(O)C[C@@H](C)[C@@H](N2CCNCC2)[C@H](C)[C@@H](O)[C@]1(C)O", "note": "[Example 15]", "values": [{"measurement": "MIC", "setting": "[1]", "result": 12.5, "unit": "µg/mL"}, {"measurement": "MIC", "setting": "[5]", "result": 6.2, "unit": "µg/mL"}, {"measurement": "MIC", "setting": "Escherichia coli Juhl; E. coli Juhl, Brain Heart Infusion agar, 20-24 hours, read-out: MIC", "result": "> 100", "unit": "µg/mL"}, {"measurement": "MIC", "setting": "Staphylococcus aureus 45; S. aureus 45, Brain Heart Infusion agar, 20-24 hours, read-out: MIC", "result": 12.5, "unit": "µg/mL"}, {"measurement": "MIC", "setting": "Escherichia coli DC-2", "result": "> 100", "unit": "µg/mL"}, {"measurement": "MIC", "setting": "[6]", "result": 1.56, "unit": "µg/mL"}, {"measurement": "MIC", "setting": "[7]", "result": 100, "unit": "µg/mL"}, {"measurement": "MIC", "setting": "[8]; CMX553", "result": 6.2, "unit": "µg/mL"}, {"measurement": "MIC", "setting": "[9]", "result": 1.56, "unit": "µg/mL"}, {"measurement": "MIC", "setting": "[10]; ATCC8043, E. faecium ATCC 8043, Brain Heart Infusion agar, 20-24 hours, read-out: MIC", "result": 12.5, "unit": "µg/mL"}, {"measurement": "MIC", "setting": "[11]", "result": 6.2, "unit": "µg/mL"}, {"measurement": "MIC", "setting": "[12]", "result": 6.2, "unit": "µg/mL"}, {"measurement": "MIC", "setting": "[13]", "result": "> 100", "unit": "µg/mL"}, {"measurement": "MIC", "setting": "Escherichia coli SS; E. coli SS, Brain Heart Infusion agar, 20-24 hours", "result": 1.56, "unit": "µg/mL"}, {"measurement": "MIC", "setting": "[14]; ATCC4698, M. luteus ATCC 4698, Brain Heart Infusion agar, 20-24 hours, read-out: MIC", "result": 12.5, "unit": "µg/mL"}, {"measurement": "MIC", "setting": "[15]; S. bovis A5169, Brain Heart Infusion agar, 20-24 hours", "result": 1.56, "unit": "µg/mL"}, {"measurement": "MIC", "setting": "[16]", "result": 3.1, "unit": "µg/mL"}, {"measurement": "MIC", "setting": "[17]", "result": 3.1, "unit": "µg/mL"}, {"measurement": "MIC", "setting": "[18]", "result": "> 100", "unit": "µg/mL"}, {"measurement": "MIC", "setting": "Escherichia coli H560", "result": 100, "unit": "µg/mL"}]}]}
